Measured values taken from patent US10428044B2, “3-amino-1,5,6,7-tetrahydro-4H-indol-4-ones” (Bayer Pharma Aktiengesellschaft, priority 2014, dated 2019).

Target: (recombinant) catalytic domain of human Bub1 (amino acids 704-1085) (Homo sapiens (Human), UniProt O43683)
Assay: Bub1 kinase assay (TR-FRET)
Format: biochemical
Conditions: ATP 10 μM final, peptide substrate 1 μM final, 60 min at 22° C., read-out: Biological Assay: Bub1 kinase assay median IC50
In short: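 Readout was TR-FRET between a Eu-labeled antibody complex recognizing phosphoserine and streptavidin-XL665 on the biotinylated peptide, after EDTA stop and 1 h at 22° C. The kinase reaction ran for 60 min at 22° C. Values are means or medians of repeat tests, from 4-parameter fits normalized to enzyme-free and inhibitor-free controls.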

Sequence of (recombinant) catalytic domain of human Bub1 (amino acids 704-1085) (O43683 704-1085): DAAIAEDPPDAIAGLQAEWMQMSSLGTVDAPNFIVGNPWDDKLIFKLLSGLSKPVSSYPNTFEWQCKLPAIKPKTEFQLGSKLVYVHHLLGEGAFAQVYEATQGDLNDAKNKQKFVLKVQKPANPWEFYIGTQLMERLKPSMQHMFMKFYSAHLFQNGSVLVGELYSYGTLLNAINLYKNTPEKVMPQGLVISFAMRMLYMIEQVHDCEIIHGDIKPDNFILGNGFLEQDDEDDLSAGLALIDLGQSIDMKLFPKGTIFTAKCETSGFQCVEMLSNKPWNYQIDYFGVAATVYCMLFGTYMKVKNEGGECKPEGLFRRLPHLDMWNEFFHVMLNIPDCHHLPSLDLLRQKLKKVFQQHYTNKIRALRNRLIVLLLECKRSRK

SMILES | IC50
O=C1CCCc2[nH]c(-c3ccnc(NC(=O)C4CC4)c3)c(Nc3cccc(F)c3)c21 [Example 47, N-(4-{3-[(3-fluorophenyl)amino]-4-oxo-4,5,6,7-tetrahydro-1H-indol-2-yl}pyridin-2-yl)cyclopropanecarboxamide] | 13.7 nM
CC(C(=O)Nc1cc(-c2[nH]c3c(c2Nc2ccccc2)C(=O)CCC3)ccn1)C(F)(F)F (centres unmarked) [Example 247, 3,3,3-trifluoro-2-methyl-N-{4-[4-oxo-3-(phenylamino)-4,5,6,7-tetrahydro-1H-indol-2-yl]pyridin-2-yl}propanamide] | 81.3 nM
CCNC(=O)Nc1cc(-c2[nH]c3c(c2Nc2ccccc2)C(=O)CCC3)ccn1 [Example 377, 1-ethyl-3-{4-[4-oxo-3-(phenylamino)-4,5,6,7-tetrahydro-1H-indol-2-yl]pyridin-2-yl}urea] | 30.1 nM
Cn1ncnc1COCC(=O)Nc1cc(-c2[nH]c3c(c2Nc2ccccc2)C(=O)CCC3)ccn1 [Example 494, 2-[(1-methyl-1H-1,2,4-triazol-5-yl)methoxy]-N-{4-[4-oxo-3-(phenylamino)-4,5,6,7-tetrahydro-1H-indol-2-yl]pyridin-2-yl}acetamide] | 10.9 nM
CC(C)C1CC(=O)c2c([nH]c(-c3ccnc(NC(=O)C4CC4)c3)c2Nc2ccc(F)cc2)C1 (centres unmarked) [Example 322, N-{4-[3-[(4-fluorophenyl)amino]-4-oxo-6-(propan-2-yl)-4,5,6,7-tetrahydro-1H-indol-2-yl]pyridin-2-yl}cyclopropanecarboxamide] | 12.7 nM
CN(CC(=O)Nc1cc(-c2[nH]c3c(c2Nc2ccccc2)C(=O)CCC3)ccn1)C(=O)OC(C)(C)C [Example 297, tert-butyl methyl[2-oxo-2-({4-[4-oxo-3-(phenylamino)-4,5,6,7-tetrahydro-1H-indol-2-yl]pyridin-2-yl}amino)ethyl]carbamate] | 271 nM
CC1(C)CC(=O)c2c([nH]c(-c3ccncc3)c2Nc2cc(Cl)ccc2F)C1 [Example 87, 3-[(5-chloro-2-fluorophenyl)amino]-6,6-dimethyl-2-(pyridin-4-yl)-1,5,6,7-tetrahydro-4H-indol-4-one] | 1780 nM
O=C1CCCc2[nH]c(-c3ccnc(NCC4CC4)c3)c(Nc3ccccc3)c21 [Example 368, 2-{2-[(cyclopropylmethyl)amino]pyridin-4-yl}-3-(phenylamino)-1,5,6,7-tetrahydro-4H-indol-4-one] | 622 nM
O=C1CCCc2[nH]c(-c3ccnc(NCCC(F)(F)F)c3)c(Nc3ccccc3)c21 [Example 365, 3-(phenylamino)-2-{2-[(3,3,3-trifluoropropyl)amino]pyridin-4-yl}-1,5,6,7-tetrahydro-4H-indol-4-one] | 604 nM
O=C1CCCc2[nH]c(-c3ccnc(NC(=O)C4CC4C(F)(F)F)c3)c(Nc3ccccc3)c21 (racemic) [Example 262, N-{4-[4-oxo-3-(phenylamino)-4,5,6,7-tetrahydro-1H-indol-2-yl]pyridin-2-yl}-2-(trifluoromethyl)cyclopropanecarboxamide] | 32.6 nM
CC(C)CNC(=O)Nc1cc(-c2[nH]c3c(c2Nc2ccccc2)C(=O)CCC3)ccn1 [Example 381, 1-(2-methylpropyl)-3-{4-[4-oxo-3-(phenylamino)-4,5,6,7-tetrahydro-1H-indol-2-yl]pyridin-2-yl}urea] | 94.4 nM
CC(C)C(=O)Nc1cccc(Nc2c(-c3ccncc3)[nH]c3c2C(=O)CC(C)(C)C3)c1 [Example 97, N-(3-{[6,6-dimethyl-4-oxo-2-(pyridin-4-yl)-4,5,6,7-tetrahydro-1H-indol-3-yl]amino}phenyl)-2-methylpropanamide] | 2980 nM
CC1(C)CC(=O)c2c([nH]c(-c3ccnc(NC4CCC4)c3)c2Nc2ccccc2)C1 [Example 359, 2-[2-(cyclobutylamino)pyridin-4-yl]-6,6-dimethyl-3-(phenylamino)-1,5,6,7-tetrahydro-4H-indol-4-one] | 208 nM
O=C(NCC(F)F)Nc1cc(-c2[nH]c3c(c2Nc2ccccc2)C(=O)CCC3)ccn1 [Example 387, 1-(2,2-difluoroethyl)-3-{4-[4-oxo-3-(phenylamino)-4,5,6,7-tetrahydro-1H-indol-2-yl]pyridin-2-yl}urea] | 63.5 nM
O=C(Nc1cc(-c2[nH]c3c(c2Nc2ccccc2)C(=O)CCC3)ccn1)c1ccccc1F [Example 264, 2-fluoro-N-{4-[4-oxo-3-(phenylamino)-4,5,6,7-tetrahydro-1H-indol-2-yl]pyridin-2-yl}benzamide] | 13.9 nM
O=C1CCCc2[nH]c(-c3ccnc(NCc4ccncc4)c3)c(Nc3ccccc3)c21 [Example 367, 3-(phenylamino)-2-{2-[(pyridin-4-ylmethyl)amino]pyridin-4-yl}-1,5,6,7-tetrahydro-4H-indol-4-one] | 291 nM
Cc1cccc(Nc2c(-c3ccncc3)[nH]c3c2C(=O)CC(C)(C)C3)c1 [Example 3, 6,6-dimethyl-3-[(3-methylphenyl)amino]-2-(pyridin-4-yl)-1,5,6,7-tetrahydro-4H-indol-4-one] | 37.8 nM
Cc1cnccc1-c1[nH]c2c(c1Nc1ccccc1)C(=O)CC(C)(C)C2 [Example 131, 6,6-dimethyl-2-(3-methylpyridin-4-yl)-3-(phenylamino)-1,5,6,7-tetrahydro-4H-indol-4-one] | 51.8 nM

SMILES | IC50
CC(C)Nc1cc(-c2[nH]c3c(c2Nc2ccccc2)C(=O)CCC3)ccn1 [Example 364, 3-(phenylamino)-2-[2-(propan-2-ylamino)pyridin-4-yl]-1,5,6,7-tetrahydro-4H-indol-4-one] | 502 nM
CC1(C)CC(=O)c2c([nH]c(-c3ccncc3)c2Nc2cncc3ccccc23)C1 [Example 64, 3-(isoquinolin-4-ylamino)-6,6-dimethyl-2-(pyridin-4-yl)-1,5,6,7-tetrahydro-4H-indol-4-one] | 1820 nM
COc1ccc(COCC(=O)Nc2cc(-c3[nH]c4c(c3Nc3ccccc3)C(=O)CCC4)ccn2)cc1 [Example 342, 2-[(4-methoxybenzyl)oxy]-N-{4-[4-oxo-3-(phenylamino)-4,5,6,7-tetrahydro-1H-indol-2-yl]pyridin-2-yl}acetamide] | 7.12 nM
C#Cc1cccc(Nc2c(-c3ccncc3)[nH]c3c2C(=O)CC(C)(C)C3)c1 [Example 428, 3-[(3-ethynylphenyl)amino]-6,6-dimethyl-2-(pyridin-4-yl)-1,5,6,7-tetrahydro-4H-indol-4-one] | 509 nM
CC1(C)CC(=O)c2c([nH]c(-c3ccncc3)c2Nc2ccc3nc[nH]c3c2)C1 [Example 73, 3-(1H-benzimidazol-6-ylamino)-6,6-dimethyl-2-(pyridin-4-yl)-1,5,6,7-tetrahydro-4H-indol-4-one] | 19900 nM
CCn1c2c(c(Nc3ccccc3)c1-c1ccnc(NC(C)=O)c1)C(=O)CC(C)(C)C2 [Example 187, N-{4-[1-ethyl-6,6-dimethyl-4-oxo-3-(phenylamino)-4,5,6,7-tetrahydro-1H-indol-2-yl]pyridin-2-yl}acetamide] | 52.3 nM
O=C(Cc1ccc[nH]1)Nc1cc(-c2[nH]c3c(c2Nc2ccccc2)C(=O)CCC3)ccn1 [Example 284, N-{4-[4-oxo-3-(phenylamino)-4,5,6,7-tetrahydro-1H-indol-2-yl]pyridin-2-yl}-2-(1H-pyrrol-2-yl)acetamide] | 13.7 nM
O=C1CCCc2[nH]c(-c3ccnc(NC(=O)[C@H]4C[C@@H]4F)c3)c(Nc3ccccc3)c21 [Example 250, (R,S/S,R)-2-fluoro-N-{4-[4-oxo-3-(phenylamino)-4,5,6,7-tetrahydro-1H-indol-2-yl]pyridin-2-yl}cyclopropanecarboxamide] | 10 nM
CC(=O)Nc1cc(-c2[nH]c3c(c2Nc2ccccc2)C(=O)CC2(CC2)C3)ccn1 [Example 293, N-{4-[4′-oxo-3′-(phenylamino)-1′,4′,5′,7′-tetrahydrospiro[cyclopropane-1,6′-indol]-2′-yl]pyridin-2-yl}acetamide] | 11.2 nM
CC(=O)Nc1cc(-c2[nH]c3c(c2Nc2ccccc2)C(=O)CCC3)ccn1 [Example 39, N-{4-[4-oxo-3-(phenylamino)-4,5,6,7-tetrahydro-1H-indol-2-yl]pyridin-2-yl}acetamide] | 14.8 nM
Nc1cc(-c2[nH]c3c(c2Nc2ccccc2)C(=O)CCC3)ccn1 [Example 139, 2-(2-aminopyridin-4-yl)-3-(phenylamino)-1,5,6,7-tetrahydro-4H-indol-4-one] | 113 nM
CC1(C)CC(=O)c2c([nH]c(-c3ccnc(NC(=O)c4cnn(C(C)(C)C)c4)c3)c2Nc2ccccc2)C1 [Example 472, 1-tert-butyl-N-{4-[6,6-dimethyl-4-oxo-3-(phenylamino)-4,5,6,7-tetrahydro-1H-indol-2-yl]pyridin-2-yl}-1H-pyrazole-4-carboxamide] | 5.04 nM
CCCOCC(=O)Nc1cc(-c2[nH]c3c(c2Nc2ccccc2)C(=O)CCC3)ccn1 [Example 330, N-{4-[4-oxo-3-(phenylamino)-4,5,6,7-tetrahydro-1H-indol-2-yl]pyridin-2-yl}-2-propoxyacetamide] | 7.83 nM
Cc1ccc(F)c(Nc2c(-c3ccncc3)[nH]c3c2C(=O)CC(C)(C)C3)c1 [Example 82, 3-[(2-fluoro-5-methylphenyl)amino]-6,6-dimethyl-2-(pyridin-4-yl)-1,5,6,7-tetrahydro-4H-indol-4-one] | 510 nM
CC1(C)CC(=O)c2c([nH]c(-c3ccnc(C(F)F)c3)c2Nc2ccccc2)C1 [Example 400, 2-[2-(difluoromethyl)pyridin-4-yl]-6,6-dimethyl-3-(phenylamino)-1,5,6,7-tetrahydro-4H-indol-4-one] | 157 nM
Nc1cc(-c2[nH]c3c(c2Nc2cccc(F)c2)C(=O)CCC3)ccn1 [Example 138, 2-(2-aminopyridin-4-yl)-3-[(3-fluorophenyl)amino]-1,5,6,7-tetrahydro-4H-indol-4-one] | 92.4 nM
CCc1cccc(Nc2c(-c3ccncc3)[nH]c3c2C(=O)CC(C)(C)C3)c1 [Example 15, 3-[(3-ethylphenyl)amino]-6,6-dimethyl-2-(pyridin-4-yl)-1,5,6,7-tetrahydro-4H-indol-4-one] | 23.6 nM
